System: AD patient fibroblasts ND41001
Assay: Rescue of AD patient fibroblasts from BSO plus iron-induced oxidative stress, ND41001
Format: cell-based
Conditions: Homo sapiens, Fibroblast
Method: An initial screen was performed to identify the effectiveness of compounds for the amelioration of PD and AD. Test samples and solvent controls were tested for their ability to rescue PD and AD fibroblasts stressed by addition of L-buthionine-(S,R)-sulfoximine (BSO, a specific inhibitor of GSH synthetase) plus iron (e.g. iron citrate), in a similar manner as that described in Jauslin et al., Hum. Mol. Genet. 11(24):3055 (2002), Jauslin et al., FASEB J. 17:1972-4 (2003), and International Patent Application WO 2004/003565. This specific BSO-mediated cell death was prevented or ameliorated by administration of compounds described herein.
The AD experiments were performed as follows. PD experiments were performed in a similar manner; certain specific conditions are noted below in Table 1A.
MEM (a medium enriched in amino acids and vitamins) and Medium 199 (M199) with Earle's Balanced Salts (EBS), without phenol red, were purchased from Invitrogen. Fetal Calf Serum was obtained from Corning. […]
100 microliters of Calcein AM (1 microM) in PBS+Ca+Mg was then added to each well. […] After that time fluorescence (excitation/emission wavelengths of 485 nm and 525 nm, respectively) was read on a Spectramax fluorescence reader. Data were analyzed using standard four-parameter curve fit algorithms (XLFit or Prism) to determine the EC50 concentration for each compound.

CCCCCCCCCC1=C(C)C(=O)C(C)=C(C)C1=O [Compound C9, 2,3,5-trimethyl-6-nonylcyclohexa-2,5-diene-1,4-dione]
EC50 (Iron citrate (50 μM) + BSO (50 μM)): 13 nM | EC50 (Iron citrate (100 μM) + BSO (25 μM)): 17 nM
